This experiment concerns the target T1, ERα (Homo sapiens, UniProt P03372).
T1 construct: host or cells: MCF7
T1 sequence (P03372 1-595): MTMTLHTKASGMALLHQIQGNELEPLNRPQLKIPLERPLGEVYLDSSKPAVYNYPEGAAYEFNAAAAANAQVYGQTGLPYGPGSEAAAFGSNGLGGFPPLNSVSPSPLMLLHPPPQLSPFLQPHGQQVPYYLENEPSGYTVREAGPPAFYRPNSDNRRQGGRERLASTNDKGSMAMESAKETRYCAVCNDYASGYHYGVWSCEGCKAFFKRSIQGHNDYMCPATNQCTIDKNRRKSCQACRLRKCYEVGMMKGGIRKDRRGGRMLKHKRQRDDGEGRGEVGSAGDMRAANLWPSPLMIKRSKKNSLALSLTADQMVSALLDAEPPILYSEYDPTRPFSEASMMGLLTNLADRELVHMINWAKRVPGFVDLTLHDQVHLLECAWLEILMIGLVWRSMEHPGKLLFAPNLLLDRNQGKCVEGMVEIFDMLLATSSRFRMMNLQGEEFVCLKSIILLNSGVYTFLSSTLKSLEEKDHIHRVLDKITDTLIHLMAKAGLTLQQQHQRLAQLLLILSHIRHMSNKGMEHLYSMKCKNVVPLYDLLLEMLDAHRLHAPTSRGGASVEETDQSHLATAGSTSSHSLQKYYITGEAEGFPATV
The experiment can be described thus: Estrogen receptor degradation activity: breast cancer cell ERα in cell western assay (MCF7 cells). The format is cell-based. As to conditions: for % Degradation At 0.3 μM: 4 hours, relative to fulvestrant 0.1 μM positive control; for DC50: 4 hours post compound addition, concentration which degrades 50% of the estrogen receptor, read-out: Degradation IC50. As for the experimental part: Test: Estrogen Receptor Degradation Activity Said test involves measuring the in vitro degradation activity of the compounds of the Table 1a. The measurements of the degradation activities were made using a breast cancer cell ERα in cell western assay as described hereunder. MCF7 cells (ATCC) were seeded in 384 wells microplate (collagen coated) at a concentration of 10000 cells/30 μL per well in red phenol free MEM alpha medium (invitrogen) containing 5% charcoal dextran striped FBS. The following day, 9 points serial 1:5 dilution of each compound was added to the cells in 2.5 μL at final concentrations ranging from […] (in table 2), or 0.1 μM for fulvestrant (using as positive control). At 4 hours post compound addition the cells were fixed by adding 25 μL of formalin (final concentration 5% formalin containing 0.1% triton) for 10 minutes at room temperature and then washed twice with PBS. Then, 50 μL of LI-COR blocking buffer containing 0.1% Triton was added to plate for 30 minutes at room temperature. LI-COR blocking buffer was removed and cells were incubated overnight at cold room with 50 μL anti-ER rabbit monoclonal antibody (Thermo scientific MA1-39540) diluted at 1:1000 in LI-COR blocking buffer containing 0.1% tween-20. Wells which were treated with blocking buffer but no antibody were used as background control. Wells were washed twice with PBS (0.1% tween-20) and incubated at 37° C. for 60 minutes in LI-COR (0.1% tween-20) containing goat anti-rabbit antibody Alexa 488 (1:1000) and Syto-64 a DNA dye (2 μM final concentration). Cells were then washed 3 times in PBS and scanned in ACUMEN explorer (TTP-Labtech). Integrated intensities in the green fluorescence and red fluorescence were measured to determine the levels of ERα and DNA respectively. The degradation activity with respect to estrogen receptors in this test is given by the concentration which degrades 50% of the estrogen receptor (or IC50) in nM. […] DMSO−fulvestrant)).

On to `O=C(O)c1ccc2c(c1)CCCC(c1cccc3c1CCC3)=C2c1ccc(C=C2CN(CCCF)C2)cc1` [Example 10, 8-(2,3-dihydro-1H-inden-4-yl)-9-(4-((1-(3-fluoropropyl)azetidin-3-ylidene)methyl)phenyl)-6,7-dihydro-5H-benzo[7]annulene-3-carboxylic acid], for which the “% Degradation At 0.3 μM” value was found to be 90% and the DC50 amounted to 0.2 nM.
Taken in the same sequence, the figures for `Cc1cc(F)ccc1C1=C(c2ccc(C=C3CN(CCCF)C3)cc2F)c2ccc(C(=O)O)cc2CCC1` [Example 11, 8-(4-fluoro-2-methylphenyl)-9-(2-fluoro-4-((1-(3-fluoropropyl)azetidin-3-ylidene)methyl)phenyl)-6,7-dihydro-5H-benzo[7]annulene-3-carboxylic acid] were 91% and 0.3 nM.
Taken in the same sequence, the figures for `O=C(O)c1ccc2c(c1)CCCC(c1ccc(F)c3c1CCC3)=C2c1ccc(C=C2CN(CCCF)C2)cc1` [Example 12, 8-(7-fluoro-2,3-dihydro-1H-inden-4-yl)-9-(4-((1-(3-fluoropropyl)azetidin-3-ylidene)methyl)phenyl)-6,7-dihydro-5H-benzo[7]annulene-3-carboxylic acid] were 93% and 0.4 nM.
Taken in the same sequence, the figures for `O=C(O)c1ccc2c(c1)CCCC(c1cccc(Cl)c1C(F)(F)F)=C2c1ccc(C=C2CN(CCC(F)F)C2)cc1` [Example 13, 8-(3-chloro-2-(trifluoromethyl)phenyl)-9-(4-((1-(3,3-difluoropropyl)azetidin-3-ylidene)methyl)phenyl)-6,7-dihydro-5H-benzo[7]annulene-3-carboxylic acid] were 89% and 0.5 nM.
For `Cc1c(C2=C(c3ccc(C=C4CN(CCCF)C4)cc3)c3ccc(C(=O)O)cc3CCC2)cccc1C(F)(F)F` [Example 14], the “% Degradation At 0.3 μM” value was 88% and the DC50 was 0.2 nM.
The matching figures for `Cc1cc(C=C2CN(CCCF)C2)c(F)cc1C1=C(c2ccc(F)cc2F)CCCc2cc(C(=O)O)ccc21.Cl` [Example 15, 8-(2,4-difluorophenyl)-9-(5-fluoro-4-((1-(3-fluoropropyl)azetidin-3-ylidene)methyl)-2-methylphenyl)-6,7-dihydro-5H-benzo[7]annulene-3-carboxylic acid hydrochloride]: 87% and 0.6 nM.
The matching figures for `O=C(O)c1ccc2c(c1)CCCC(c1ccc(C(F)(F)F)cc1C(F)(F)F)=C2c1ccc(C=C2CN(CCCF)C2)cc1` [Example 16, 8-(2,4-bis(trifluoromethyl)phenyl)-9-(4-((1-(3-fluoropropyl)azetidin-3-ylidene)methyl)phenyl)-6,7-dihydro-5H-benzo[7]annulene-3-carboxylic acid]: 93% and 0.4 nM.
The matching figures for `Cc1c(C2=C(c3ccc(F)cc3F)CCCc3cc(C(=O)O)ccc32)ccc(C=C2CN(CCCF)C2)c1F.Cl` [Example 17, 8-(2,4-difluorophenyl)-9-(3-fluoro-4-((1-(3-fluoropropyl)azetidin-3-ylidene)methyl)-2-methylphenyl)-6,7-dihydro-5H-benzo[7]annulene-3-carboxylic acid hydrochloride]: 89% and 0.5 nM.
With `O=C(O)c1ccc2c(c1)CCCC(c1ncc(F)cc1C(F)(F)F)=C2c1ccc(C=C2CN(CCCF)C2)cc1` [Example 18, 8-(5-fluoro-3-(trifluoromethyl)pyridin-2-yl)-9-(4-((1-(3-fluoropropyl)azetidin-3-ylidene)methyl)phenyl)-6,7-dihydro-5H-benzo[7]annulene-3-carboxylic acid], the “% Degradation At 0.3 μM” value was 90% and the DC50 worked out at 0.6 nM.
The matching figures for `Cc1cc(F)ccc1C1=C(c2ccc(C=C3CN(CCC(F)F)C3)cc2)c2ccc(C(=O)O)cc2CCC1` [Example 19, 9-(4-((1-(3,3-difluoropropyl)azetidin-3-ylidene)methyl)phenyl)-8-(4-fluoro-2-methylphenyl)-6,7-dihydro-5H-benzo[7]annulene-3-carboxylic acid]: 93% and 0.2 nM.
The matching figures for `O=C(O)c1ccc2c(c1)CCCC(c1ccc(F)cc1F)=C2c1ccc(C=C2CN(CCC(F)F)C2)cc1` [Example 20, 8-(2,4-difluorophenyl)-9-(4-((1-(3,3-difluoropropyl)azetidin-3-ylidene)methyl)phenyl)-6,7-dihydro-5H-benzo[7]annulene-3-carboxylic acid]: 92% and 0.3 nM.
Taken in the same sequence, the figures for `O=C(O)c1ccc2c(c1)CCCC(c1c(F)cc(C(F)(F)F)cc1F)=C2c1ccc(C=C2CN(CCCF)C2)cc1` [Example 21, 8-(2,6-difluoro-4-(trifluoromethyl)phenyl)-9-(4-((1-(3-fluoropropyl)azetidin-3-ylidene)methyl)phenyl)-6,7-dihydro-5H-benzo[7]annulene-3-carboxylic acid] were 93% and 0.3 nM.
In the case of `Cc1c(C2=C(c3ccc(C=C4CN(CCC(F)F)C4)cc3)c3ccc(C(=O)O)cc3CCC2)ccc(F)c1F` [Example 22, 8-(3,4-difluoro-2-methylphenyl)-9-(4-((1-(3,3-difluoropropyl)azetidin-3-ylidene)methyl)phenyl)-6,7-dihydro-5H-benzo[7]annulene-3-carboxylic acid], the “% Degradation At 0.3 μM” value is on record as 93% and the DC50 worked out at 0.5 nM.
`O=C(O)c1ccc2c(c1)CCCC(c1cccc(Cl)c1C(F)(F)F)=C2c1ccc(C=C2CN(CCCF)C2)cc1` [Example 23, 8-(3-chloro-2-(trifluoromethyl)phenyl)-9-(4-((1-(3-fluoropropyl)azetidin-3-ylidene)methyl)phenyl)-6,7-dihydro-5H-benzo[7]annulene-3-carboxylic acid]: the “% Degradation At 0.3 μM” value is 96% and the DC50 stood at 0.4 nM.
Taken in the same sequence, the figures for `O=C(O)c1ccc2c(c1)CCCC(c1cccc(F)c1C(F)(F)F)=C2c1ccc(C=C2CN(CCCF)C2)cc1` [Example 24, 8-(3-fluoro-2-(trifluoromethyl)phenyl)-9-(4-((1-(3-fluoropropyl)azetidin-3-ylidene)methyl)phenyl)-6,7-dihydro-5H-benzo[7]annulene-3-carboxylic acid] were 95% and 0.2 nM.
Taken in the same sequence, the figures for `O=C(O)c1ccc2c(c1)CCCC(c1ccc(F)cc1C(F)(F)F)=C2c1ccc(C=C2CN(CCC(F)F)C2)cc1` [Example 25, 9-(4-((1-(3,3-difluoropropyl)azetidin-3-ylidene)methyl)phenyl)-8-(4-fluoro-2-(trifluoromethyl)phenyl)-6,7-dihydro-5H-benzo[7]annulene-3-carboxylic acid] were 92% and 0.5 nM.
The matching figures for `O=C(O)c1ccc2c(c1)CCCC(c1cccc(F)c1C(F)(F)F)=C2c1ccc(C=C2CN(CCC(F)F)C2)cc1` [Example 26, 9-(4-((1-(3,3-difluoropropyl)azetidin-3-ylidene)methyl)phenyl)-8-(3-fluoro-2-(trifluoromethyl)phenyl)-6,7-dihydro-5H-benzo[7]annulene-3-carboxylic acid]: 91% and 0.4 nM.
As for `Cc1cc(C2=C(c3ccc(F)cc3F)CCCc3cc(C(=O)O)ccc32)cc(F)c1C=C1CN(CCCF)C1` [Example 27, 8-(2,4-difluorophenyl)-9-(3-fluoro-4-((1-(3-fluoropropyl)azetidin-3-ylidene)methyl)-5-methylphenyl)-6,7-dihydro-5H-benzo[7]annulene-3-carboxylic acid], the “% Degradation At 0.3 μM” value was determined as 92% and the DC50 worked out at 0.9 nM.

The values are drawn from patent publication US12612360B2 (Sanofi, priority 2020, dated 2026).
